From the CheMixHub viscosity set
Values joined by “and” are separate entries in the source; they are usually repeats but may differ in a detail not shown here. Identical values can stand only once. ± gives the uncertainty stated by the source.

Experiment: xn = mol fraction of the nth substance listed

CCCCCCCl + C1COCCO1
303.15 K, 101.3 kPa
Settings	viscosity [mPa·s]
x2 = 0.1087	0.6686 ± 0.0045
x2 = 0.2953	0.7084 ± 0.0047
x2 = 0.5004	0.7719 ± 0.005
x2 = 0.6974	0.8637 ± 0.0055
x2 = 0.9013	1.004 ± 0.0063

CCCCCCCCO + CCOC(C)=O
viscosity [mPa·s]
Settings	298.15 K	303.15 K	308.15 K	313.15 K
101 kPa, x1 = 0.0646	0.512 ± 0.031	0.484 ± 0.029	0.455 ± 0.027	0.429 ± 0.026
101 kPa, x1 = 0.1344	0.629 ± 0.038	0.589 ± 0.036	0.55 ± 0.033	0.513 ± 0.031
101 kPa, x1 = 0.2103	0.783 ± 0.047	0.727 ± 0.044	0.673 ± 0.041	0.623 ± 0.038
101 kPa, x1 = 0.2928	0.991 ± 0.06	0.911 ± 0.055	0.834 ± 0.05	0.766 ± 0.046
101 kPa, x1 = 0.3832	1.279 ± 0.077	1.164 ± 0.07	1.054 ± 0.064	0.958 ± 0.058
101 kPa, x1 = 0.4823	1.689 ± 0.1	1.519 ± 0.092	1.36 ± 0.082	1.223 ± 0.074
101 kPa, x1 = 0.5917	2.298 ± 0.14	–	1.806 ± 0.11	1.605 ± 0.097
101 kPa, x1 = 0.713	3.246 ± 0.2	2.844 ± 0.17	2.482 ± 0.15	2.179 ± 0.13
101 kPa, x1 = 0.8483	4.801 ± 0.29	4.144 ± 0.25	3.563 ± 0.21	3.083 ± 0.19
101.33 kPa, x2 = 0.141	4.383 ± 0.19	3.809 ± 0.17	3.324 ± 0.15	–
101.33 kPa, x2 = 0.2701	2.825 ± 0.13	2.512 ± 0.11	2.215 ± 0.1	–
101.33 kPa, x2 = 0.3878	1.985 ± 0.091	1.777 ± 0.083	1.596 ± 0.075	–
101.33 kPa, x2 = 0.4964	1.449 ± 0.069	1.292 ± 0.062	1.152 ± 0.056	–
101.33 kPa, x2 = 0.5965	1.088 ± 0.053	0.992 ± 0.049	0.907 ± 0.045	–
101.33 kPa, x2 = 0.6891	0.841 ± 0.043	0.798 ± 0.041	0.724 ± 0.038	–
101.33 kPa, x2 = 0.7641	0.712 ± 0.037	0.653 ± 0.034	0.606 ± 0.032	–
101.33 kPa, x2 = 0.8552	0.585 ± 0.032	0.542 ± 0.03	0.51 ± 0.028	–
101.33 kPa, x2 = 0.9301	0.496 ± 0.028	0.468 ± 0.026	0.446 ± 0.026	–

BrC(Br)Br + CCCCCCC(C)O
viscosity [mPa·s], 101.3 kPa
Settings	x1 = 0.104	x1 = 0.199	x1 = 0.3	x1 = 0.403	x1 = 0.502	x1 = 0.603	x1 = 0.704	x1 = 0.801	x1 = 0.899
298.15 K	5.244 ± 0.062	4.606 ± 0.055	3.91 ± 0.047	3.391 ± 0.041	2.965 ± 0.036	2.623 ± 0.032	2.337 ± 0.029	2.123 ± 0.027	1.969 ± 0.025
303.15 K	4.336 ± 0.052	3.855 ± 0.047	3.348 ± 0.041	2.937 ± 0.036	2.594 ± 0.032	2.335 ± 0.029	2.104 ± 0.026	1.943 ± 0.024	1.83 ± 0.023
308.15 K	3.625 ± 0.044	3.274 ± 0.04	2.894 ± 0.036	2.566 ± 0.032	2.288 ± 0.028	2.084 ± 0.026	1.913 ± 0.024	1.785 ± 0.023	1.698 ± 0.022

BrC(Br)Br + CS(C)=O
Settings	viscosity [mPa·s]
298 K, 101.3 kPa, x1 = 0.0899	2.155 ± 0.028
298 K, 101.3 kPa, x1 = 0.1708	2.427 ± 0.032
298 K, 101.3 kPa, x1 = 0.3448	2.816 ± 0.037
298 K, 101.3 kPa, x1 = 0.4446	2.945 ± 0.039
298 K, 101.3 kPa, x1 = 0.5453	2.944 ± 0.039
298 K, 101.3 kPa, x1 = 0.6466	2.762 ± 0.037
298 K, 101.3 kPa, x1 = 0.7553	2.544 ± 0.034
298 K, 101.3 kPa, x1 = 0.8619	2.192 ± 0.029
318 K, 101.33 kPa, x1 = 0.1216	1.568 ± 0.04
318 K, 101.33 kPa, x1 = 0.2541	1.787 ± 0.04
318 K, 101.33 kPa, x1 = 0.443	1.978 ± 0.04
318 K, 101.33 kPa, x1 = 0.5441	1.982 ± 0.04
318 K, 101.33 kPa, x1 = 0.5955	1.983 ± 0.04
318 K, 101.33 kPa, x1 = 0.8193	1.716 ± 0.04

BrC(Br)Br + CCCC#N
298.15 K, 101 kPa
Settings	viscosity [mPa·s]
x1 = 0.09373	0.6216 ± 0.041
x1 = 0.2439	0.8407 ± 0.041
x1 = 0.3911	1.021 ± 0.042
x1 = 0.4986	1.169 ± 0.042
x1 = 0.7	1.46 ± 0.043
x1 = 0.9	1.724 ± 0.045

C=Cc1ccccc1 + CCCCCCCCCCCC
viscosity [mPa·s], 101.33 kPa
Settings	x1 = 0.0973	x1 = 0.2027	x1 = 0.2991	x1 = 0.4009	x1 = 0.5183	x1 = 0.5987	x1 = 0.699	x1 = 0.8005	x1 = 0.8996
298.15 K	1.243 ± 0.017	1.143 ± 0.016	1.062 ± 0.016	0.99 ± 0.015	0.909 ± 0.015	0.866 ± 0.014	0.822 ± 0.014	0.774 ± 0.014	0.739 ± 0.013
303.15 K	1.151 ± 0.016	1.051 ± 0.016	0.985 ± 0.015	0.92 ± 0.015	0.847 ± 0.014	0.81 ± 0.014	0.769 ± 0.014	0.722 ± 0.013	0.688 ± 0.013
308.15 K	1.059 ± 0.016	0.98 ± 0.015	0.915 ± 0.015	0.854 ± 0.014	0.791 ± 0.014	0.76 ± 0.014	0.724 ± 0.013	0.691 ± 0.013	0.656 ± 0.013

O=C([O-])CC(O)(CC(=O)[O-])C(=O)[O-].[NH4+].[NH4+].[NH4+] + O
viscosity, 101 kPa
Settings	298.15 K	308.15 K	318.15 K
x1 = 0.004	0.9957 ± 0.031 mPa·s	0.814 ± 0.031 mPa·s	0.685 ± 0.031 mPa·s
x1 = 0.007	1.13 ± 0.032 mPa·s	0.923 ± 0.031 mPa·s	0.7741 ± 0.031 mPa·s
x1 = 0.01	1.283 ± 0.032 mPa·s and 1.49 ± 0.033 mPa·s	1.048 ± 0.031 mPa·s and 1.211 ± 0.032 mPa·s	0.8784 ± 0.031 mPa·s and 1.01 ± 0.031 mPa·s

C=Cc1ccccc1 + c1ccccc1
viscosity [mPa·s], 101 kPa
Settings	x2 = 0.1362	x2 = 0.2498	x2 = 0.3047	x2 = 0.4109	x2 = 0.5207	x2 = 0.5834	x2 = 0.7114	x2 = 0.7924	x2 = 0.8831
298.15 K	0.672 ± 0.009	0.654 ± 0.009	0.645 ± 0.009	0.633 ± 0.009	0.623 ± 0.009	0.618 ± 0.009	0.608 ± 0.009	0.605 ± 0.009	0.604 ± 0.009
303.15 K	0.629 ± 0.009	0.61 ± 0.009	0.6 ± 0.009	0.589 ± 0.009	0.577 ± 0.008	0.57 ± 0.008	0.56 ± 0.008	0.556 ± 0.008	0.555 ± 0.008
308.15 K	0.59 ± 0.008	0.57 ± 0.008	0.56 ± 0.008	0.548 ± 0.008	0.537 ± 0.008	0.53 ± 0.008	0.52 ± 0.008	0.515 ± 0.008	0.514 ± 0.008
313.15 K	0.54 ± 0.008	0.518 ± 0.008	0.51 ± 0.008	0.499 ± 0.008	0.487 ± 0.008	0.48 ± 0.008	0.47 ± 0.008	0.466 ± 0.008	0.465 ± 0.008

CC1CCCC(O)C1 (stereo unspecified) + c1ccccc1
293.15 K, 101 kPa
Settings	viscosity
x2 = 0.3	4.2 ± 0.1 mPa·s
x2 = 0.5	2.1 ± 0.1 mPa·s
x2 = 0.6	1.6 ± 0.1 mPa·s
x2 = 0.7	1.5 ± 0.1 mPa·s
x2 = 0.8	1.2 ± 0.1 mPa·s and 1.1 ± 0.1 mPa·s
